Results as given in BindingDB's records for doi:10.1021/jm00046a008 (University of Alabama At Birmingham, 1994).

Target: Carnitine O-acetyltransferase (Columba livia)
Assay: Tested against pigeon breast carnitine acyltransferase

Ki [mM] | SMILES
25 | CC(=O)NC(CC(=O)O)CC(C)(C)C (configuration not stated) [3-Acetylamino-5,5-dimethyl-hexanoic acid anion]
0.024 | CC(=O)NC(CC(=O)[O-])C[N+](C)(C)C (configuration not stated) [(2-Acetylamino-3-carboxy-propyl)-trimethyl-ammonium]
